Patent publication US11376252B2, “Multikinase inhibitors and uses in prostatic hyperplasia and urinary track diseases” (AIVIVA BIOPHARMA, INC., priority 2017, dated 2022)
Entries after “also recorded” stand apart in the source; their conditions may differ. Where a name gives a salt, the structure may show the parent alone.

Legend:
[1] = tested on: testosterone (TE) and phenylephrine (PE) induced benign prostate hyperplasia in rats; test: Testosterone (TE) and phenylephrine (PE) induced benign prostate hyperplasia in rats, intra-prostate injection (Example 1); format: in vivo, Male Wistar rats; details: for glandular hyperplasia as compared to the untreated TE/PE induced prostates: TE/PE induced rats, intra-prostate injection, histology
Description: BPH is a true hyperplastic process. Histologic studies have documented an increase in cell number. A study was conducted, therefore, to determine the effects of test compounds and vehicle on testosterone (TE) and phenylephrine (PE) induced benign prostate hyperplasia in rats. Male Wistar rats were induced with testosterone (2 mg/kg) plus phenylephrine (5 mg/kg) administered daily by subcutaneous injection on days 5 through 32. Vehicle or test compounds (all at 1% w/w), nintedanib, sunitinib, lenvatinib, and 0.5% doxazosin mesylate, were administered by intra-prostate injection (0.4 ml) in dorsolateral and ventral lobes on days 1 and 18. Animals were euthanized on day 32. Body weights were determined and prostate glands were harvested. The experimental design is outlined in Table 1.
At necropsy, the ventral and dorsolateral lobes of the prostate were separated and then cut into halves. The left halves were fixed in 10% neutral buffered formalin, sectioned, and stained with Hematoxylin and Eosin (H&E). Histological changes in these sections were scored. Epithelial hyperplasia was recognized as an increase in epithelial cells within normal-appearing gland profiles, primarily reflected by stratification of epithelial cells and increased presence of epithelial tufting and papillary projections. A severity grade of 0 (not present) through 5 (severe) was assigned to each sample.

[2] = tested on: testosterone and/or phenylephrine induced BPH in rats; test: Post-induction study in testosterone and/or phenylephrine induced BPH in rats, intra-prostate injection (Example 2); format: in vivo, Male Wistar rats; details: for mean prostate weight/100 g body weight compared to vehicle: TE+PE induced days 1-28; for epithelial hyperplasia score (0 not present through 5 severe), representative image: dorsolateral prostate, FIG. 6
Description: Morphologically, BPH is characterized by the formation of a new architecture through the proliferation of the epithelium in pre-existing ducts. Given that stromal cells serve important paracrine regulatory functions in epithelial cell homeostasis, late stage changes in stromal-epithelial interactions could provide insight into BPH progression. A second study was conducted to determine the therapeutic effects of test compounds and vehicle, post-induction in a protocol using testosterone and/or phenylephrine induced BPH in rats.
Male Wistar rats were induced with testosterone (2 mg/kg) plus phenylephrine (5 mg/kg) administered daily by subcutaneous injection on days 1 through 28. Vehicle or test compounds sorafenib (1% w/w), pirfenidone (2.5% w/w), and riociguat (1% w/w) were administered by intra-prostate injection (0.2 ml) in the dorsolateral lobe on days 15 and 29. Animals were euthanized on day 42. Body weights were determined. Prostate glands were harvested and weighed. The experimental design is outlined in Table 2.
At necropsy, the dorsolateral and ventral lobes of the prostate were separated and cut into halves. The left halves were fixed in 10% neutral buffered formalin, sectioned, and stained with Hematoxylin and Eosin (H&E). Epithelial hyperplasia was recognized as an increase in epithelial cells within normal appearing gland profiles, as reflected in the stratification of epithelial cells and increased presence of epithelial tufting and papillary projections. Stromal changes were examined microscopically. These changes included inflammation and tissue fibroplasia. Each section was given a severity score ranging from 0 (not present) through 5 (severe).

[3] = tested on: suture induced fibrosis model in rabbits; test: Suture induced fibrosis model in rabbits (cornea), topical administration (Example 4); format: in vivo; details: 0.3% w/w topical, three times daily for 10 days, Day 11; for fibroplasia and/or collagen density (histological staining, Masson's trichrome): FIG. 8
Description: A study was conducted to determine the potential beneficial effects of topical administration of test compounds and vehicle in a suture induced fibrosis model in rabbits. Sutures were placed intrastromally, under a microscope, in the cornea of rabbits. In each eye, one 9-0 silk suture was placed, in a vertical position, temporal to the center of the cornea and a second suture was placed nasal to the corneal center. Each suture had two stromal incursions approximately 2 mm from the limbus. Test compounds having a certain spectrum of multikinase inhibition activities, or vehicle, were topically instilled (35 μL/eye) in the eyes three times daily for 10 days following surgery. The treatment groups include vehicle, nintedanib (0.3%, w/w), sorafenib (0.3%, w/w) and lenvatinib (0.3%, w/w). Six left eyes were used per treatment group.
During the in-life phase, gross ocular observations of very slight to moderate conjunctival congestion and swelling were similar among groups, including the vehicle control. The animals were sacrificed on Day 11 and eyes enucleated and dissected for histopathological evaluation.

[4] = tested on: laser induced choroidal neovascularization; test: Laser induced choroidal neovascularization in rat eyes (Example 5); format: in vivo; details: Day 22, FIG. 9; for lesion sizes relative to vehicle (fluorescein angiography): topical eyedrop 1%, three times a day Days 2-21
Text: Increased expression of angiogenic factors, such as VEGF and bFGF, along with increased microvessel density, have been reported in benign prostatic hyperplasia, high grade prostate intraepithelial neoplasia and prostate cancer. […] In this example, the effect of local administration of multikinase inhibitors in a rat model of neovascularization was examined. New vessel growth is regulated by growth factor receptor signaling pathways, the functions of which broadly overlap among organs and tissues. In this study, effects of local administration of the multikinase inhibitors nintedanib and lenvatinib were examined by intravitreal injection or topical application to rat eyes following laser induced choroidal neovascularization. A 22-day study was conducted to determine the effects of test agents, positive control, or vehicle on the development of new vessels. On Day 1, laser treatments were performed on all animals using a 520 nm thermal laser to generate a total of three lesions per eye. On Days 2-21, bilateral topical administration of vehicle, 1% nintedanib, or 1% lenvatinib was performed three times a day. On Day 3, bilateral intravitreal injection of vehicle, 5 μg/eye of rat anti-VEGF antibody, 50 μg/eye of nintedanib, or 50 μg/eye of lenvatinib was performed in a second group of animals. On Day 22, fluorescein angiography was performed on all animals and lesion size/area was determined using image analysis software (ImageJ).

[5] = dorsolateral prostate, TE and PE induced, intra-prostate injection days 1 and 18, 1% w/w (doxazosin 0.5%), day 32, H&E, FIG. 1
[6] = intra-prostate injection days 15 and 29, day 42, FIG. 5
[7] = TE+PE induced, intra-prostate injection days 15 and 29, day 42
[8] = ventral prostate, TE and PE induced, intra-prostate injection days 1 and 18, 1% w/w (doxazosin 0.5%), day 32, H&E, FIG. 2
[9] = intravitreal injection 50 μg/eye on Day 3

SMILES: CCN(CC)CCNC(=O)c1c(C)[nH]c(/C=C2\C(=O)Nc3ccc(F)cc32)c1C [sunitinib]
- epithelial hyperplasia score (severity grade 0 not present through 5 severe), representative image ([1]; 768 h): 3
- epithelial hyperplasia score (severity grade 0 not present through 5 severe), representative image [1, 5]: 3

SMILES: Cc1ccc(=O)n(-c2ccccc2)c1 [pirfenidone]
- mean prostate weight/100 g body weight compared to vehicle [2, 6]: did not show a reduction in mean prostate weight
- epithelial hyperplasia score (0 not present through 5 severe), representative image [2, 7]: 1

SMILES: COC(=O)c1ccc2c(c1)NC(=O)/C2=C(\Nc1ccc(N(C)C(=O)CN2CCN(C)CC2)cc1)c1ccccc1 [nintedanib]
- glandular hyperplasia as compared to the untreated TE/PE induced prostates [1]: demonstrated reduction of glandular hyperplasia
- epithelial hyperplasia score (severity grade 0 not present through 5 severe), representative image [1, 5]: 3
- epithelial hyperplasia score (severity grade 0 not present through 5 severe), representative image [1, 8]: 3
- alpha SMA staining by immunohistochemical analysis relative to vehicle [3]: significantly reduced alpha SMA staining
- fibroplasia and/or collagen density (histological staining, Masson's trichrome) [3]: significantly reduced fibroplasia and/or collagen density
- lesion sizes relative to vehicle-treated eyes (fluorescein angiography) [4, 9]: significantly reduced lesion sizes
- lesion sizes relative to vehicle (fluorescein angiography) [4]: reduced lesion sizes

SMILES: COc1cc2nccc(Oc3ccc(NC(=O)NC4CC4)c(Cl)c3)c2cc1C(N)=O [lenvatinib]
- glandular hyperplasia as compared to the untreated TE/PE induced prostates [1]: demonstrated reduction of glandular hyperplasia
- epithelial hyperplasia score (severity grade 0 not present through 5 severe), representative image [1, 5]: 2
- epithelial hyperplasia score (severity grade 0 not present through 5 severe), representative image [1, 8]: 3
- alpha SMA staining by immunohistochemical analysis relative to vehicle [3]: significantly reduced alpha SMA staining
- fibroplasia and/or collagen density (histological staining, Masson's trichrome) [3]: significantly reduced fibroplasia and/or collagen density
- lesion sizes relative to vehicle-treated eyes (fluorescein angiography) [4, 9]: significantly reduced lesion sizes
- lesion sizes relative to positive control, rat anti-VEGF (fluorescein angiography) ([4]; intravitreal injection 50 μg/eye on Day 3, anti-VEGF 5 μg/eye): significantly reduced lesion sizes
- lesion sizes relative to vehicle (fluorescein angiography) [4]: reduced lesion sizes

SMILES: CNC(=O)c1cc(Oc2ccc(NC(=O)Nc3ccc(Cl)c(C(F)(F)F)c3)cc2)ccn1 [sorafenib]
- mean prostate weight/100 g body weight compared to vehicle [2, 6]: did not show a reduction in mean prostate weight
- inhibition of benign prostate hyperplasia / therapeutic effect in the prostate ([2]; TE+PE induced rats, 1% w/w intra-prostate): not an effective inhibitor; also recorded: did not show any therapeutic effect
- epithelial hyperplasia score (0 not present through 5 severe), representative image [2, 7]: 2
- alpha SMA staining by immunohistochemical analysis relative to vehicle [3]: no effect on alpha SMA
- fibroplasia and/or collagen density (histological staining, Masson's trichrome) [3]: little or no effect

SMILES: COC(=O)N(C)c1c(N)nc(-c2nn(Cc3ccccc3F)c3ncccc23)nc1N [riociguat]
- effect on prostate volume and histological changes in epithelial hyperplasia ([2]; TE induced rats, 1% w/w intra-prostate): showed an effect on prostate volume and histological changes in epithelial hyperplasia
- mean prostate weight/100 g body weight compared to vehicle control ([2]; TE induction days 1-28, intra-prostate injection days 15 and 29, day 42, FIG. 5): reduced the mean prostate weight
- epithelial hyperplasia score (0 not present through 5 severe), representative image ([2]; TE induced, intra-prostate injection days 15 and 29, day 42): 1

SMILES: COc1cc2nc(N3CCN(C(=O)C4COc5ccccc5O4)CC3)nc(N)c2cc1OC (stereo not drawn) [doxazosin, doxazosin mesylate]
- glandular hyperplasia as compared to the untreated TE/PE induced prostates [1]: demonstrated reduction of glandular hyperplasia
- epithelial hyperplasia score (severity grade 0 not present through 5 severe), representative image [1, 5]: 3
- epithelial hyperplasia score (severity grade 0 not present through 5 severe), representative image [1, 8]: 3
